This is an account of results in article PMC12627862, “Therapeutic targeting of endothelial calcium signaling accelerates the resolution of lung injury” (Signal Transduction and Targeted Therapy, 2025).

As usually defined, the logD is lipophilicity at a set pH, counting ionised and neutral species. Broadly, the inhibition is the share of the control response that was lost under treatment. A lower inhibition goes with a weak effect.

Read-outs that look alike come from different tables or passages of the source. Starred links: 1 amine or outer side, 2 acyl side, 3 side chain; linkers in the order of their positions; H or OH if unused. Positions of bridges follow the written chain, without caps; N, C: chain ends. Non-standard residues stand in square brackets, D forms with d. Residues, ends and D or L forms follow the SMILES beside them. No end group written: not given here. ξ: configuration not given here. Leu(4,5-dehydro) = C=C(C)C[C@H](N)C(=O)O; Oic = O=C(O)[C@@H]1C[C@@H]2CCCC[C@@H]2N1; X4 = C=C(C)C[C@@H](N[*:1])C(=O)[*:2]; dVal(3-OH) = CC(C)(O)[C@@H](N)C(=O)O; cisHyp = O=C(O)[C@@H]1C[C@H](O)CN1; tBuAla = CC(C)(C)C[C@H](N)C(=O)O; R5 = C=CCCC[C@@](C)(N)C(=O)O; X1 = O=C(CC(O)CN[*:1])[*:2]; 3Amb = NCc1cccc(C(=O)O)c1; 4Amb = NCc1ccc(C(=O)O)cc1; ξP = O=C(O)C1CCCN1

A short description of data set [1]: Aggregation / solubility at 1 mM. As to conditions: summary calls it solubility at 1mM. It counts as physicochemical. As for the experimental part:
(§1) The solubilities of the synthesized compounds were determined experimentally (Supplementary Table 2). Most compounds were highly soluble at a 1 mM concentration; however, some compounds tended to form aggregates. These compounds were excluded from further studies. In addition, we experimentally determined the lipophilicity of each compound, logP(oct/wat)=log(soluteoct/solutewat ), which is the partition coefficient of a compound between aqueous (water) and lipophilic (octanol) phases (Supplementary Table 2).

Data set [2] in a line: Lipophilicity of peptides, logP(oct/wat). It counts as physicochemical. On the procedure: as §1
Lipophilicity of peptides. Two separate solutions were obtained: an aqueous phosphate buffer with saturated n-octanol, and an n-octanol solution with saturated phosphate buffer. Peptides were then dissolved and diluted in the phosphate buffer. Different partitions were then made with different n-octanol to water ratio before shaking for an hour at room temperature. The aqueous phase and n-octanol were allowed to equilibrate, and each phase was extracted and analyzed for peptide concentrations. The ratio of peptide concentration in n-octanol to that in water is expressed as log(P).

The target in data set [3] is EB3 interactions with IP3R3-GFP (Homo sapiens, UniProt Q9UPY8). Description: Competitive binding: inhibition of EB3 interaction with IP3R3-GFP in vitro. Type of data set: biochemical. As to conditions: for inhibition at 0.25 µM: 250 nM. From the text: We tested the efficacy of twenty-three compounds in inhibiting EB3 interactions with IP3R3-GFP via an in vitro approach developed by us[12],[13]. […] Guided by NMR studies, we predicted the binding pose of 109 to EB3 via AutoDock Vina[13],[24],[25].

The subject of data set [4] is human primary microvascular lung endothelial cells (HLMVECs). Nature of the data set: Peptide uptake in endothelial cells. It counts as cell-based. On the procedure: We next analyzed the cell-penetrating properties of the selected compounds, hereafter referred to as vascular therapeutics (VT). The rate of uptake of 5’6-FAM (fluorescein)-labeled compounds by human primary microvascular lung endothelial cells (HLMVECs) was determined via confocal fluorescence live-cell imaging. FAM-labeled Myr-EBIN[13] and fluorescein alone were used as positive and negative controls, respectively. The t½ uptake and maximal uptake were determined from changes in the integrated fluorescence intensity over a 30 min period (Fig. 2a and Supplementary Fig. 1a). […] Like Myr-EBIN, compounds VT-107, -108 and -109 presented the highest uptake rates of 92.5 ± 5.0%, 82.5 ± 2.8% and 94.7 ± 4.9%, respectively, whereas the linear compound VT-101 was taken up less efficiently, with an average uptake of 58.4 ± 2.7% (Fig. 2a). […] The t½ uptake, however, varied between the tested compounds (Fig. 2b). The stapled compounds presented the shortest t½ uptake, whereas the linear compounds presented the longest t½ (Fig. 2b).
Peptide uptake in endothelial cells. The rate of peptide uptake by primary human microvascular endothelial cells was measured using 5’6FAM (fluorescein)-labeled peptides and confocal fluorescence live-cell imaging, with fluorescein alone used as a negative control. Changes in intracellular fluorescence for each peptide were monitored over time, and saponin, a detergent, was added at the end of the experiment to induce full uptake of the tested peptides by endothelial cells. The fluorescence intensity inside the cells was tracked over time, and the half-time uptake (t1/2) and maximum uptake were calculated.

EB3 interactions with IP3R3-GFP, sequence (Q9UPY8 whole entry): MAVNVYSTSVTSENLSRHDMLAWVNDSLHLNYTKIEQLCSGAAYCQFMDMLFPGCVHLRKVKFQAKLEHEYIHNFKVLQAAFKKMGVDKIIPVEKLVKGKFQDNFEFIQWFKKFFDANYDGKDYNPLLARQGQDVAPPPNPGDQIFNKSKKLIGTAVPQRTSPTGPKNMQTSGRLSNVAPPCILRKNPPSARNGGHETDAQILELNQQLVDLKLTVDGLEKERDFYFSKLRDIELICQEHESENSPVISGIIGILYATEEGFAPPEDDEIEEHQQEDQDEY

`CC[C@H](C)[C@H](NC(=O)[C@@H](NC(=O)[C@@H]1C[C@H](O)CN1C(=O)[C@H](CC(C)(C)C)NC(=O)[C@H](CCC(=O)O)NC(=O)[C@H](NC(=O)[C@@H](N)Cc1ccccc1)C(C)(C)O)[C@@H](C)O)C(=O)O` [compound 038, (S)-4-((R)-2-((S)-2-amino-3-phenylpropanamido)-3-hydroxy-3-methylbutanamido)-5-(((S)-1-((2S,4S)-2-(((2S,3R)-1-(((1S,2S)-1-carboxy-2-methylbutyl)amino)-3-hydroxy-1-oxobutan-2-yl)carbamoyl)-4-hydroxypyrrolidin-1-yl)-4,4-dimethyl-1-oxopentan-2-yl)amino)-5-oxopentanoic acid] (H-F[dVal(3-OH)]E[tBuAla][cisHyp]TI-OH): the “Aggregation at 1mM” value in data set [1] was determined as 0.35. Further, in data set [2], the logD was -0.19. The molecule also yielded an inhibition at 0.25 µM in data set [3] of 36%.

For the molecule `CC[C@H](C)[C@H](NC(=O)CC(O)CNC(=O)[C@@H]1[C@@H]2CCCC[C@@H]2CN1C(=O)[C@H](CC(C)(C)C)NC(=O)c1cccc(CNC(=O)[C@H](NC(=O)[C@@H](N)Cc2ccccc2)C(C)(C)O)c1)C(=O)O` (stereo partly drawn) [compound 041, (4-((1S,3aS,7aR)-2-((S)-2-(3-(((R)-2-((S)-2-amino-3-phenylpropanamido)-3-hydroxy-3-methylbutanamido)methyl)benzamido)-4,4-dimethylpentanoyl)octahydro-1H-isoindole-1-carboxamido)-3-hydroxybutanoyl)-L-isoleucine], the “Aggregation at 1mM” value in data set [1] came to 0.18. In data set [2], the logD came to 0.71. This molecule gave an inhibition at 0.25 µM in data set [3] of 30%.

For `CC[C@H](C)[C@H](NC(=O)[C@H](NC(=O)[C@@H]1C[C@H](O)CN1C(=O)[C@H](CC(C)(C)C)NC(=O)c1cccc(CNC(=O)[C@H](NC(=O)[C@@H](N)Cc2ccccc2)C(C)(C)O)c1)C(C)(C)O)C(=O)O` [compound 042, ((R)-2-((2S,4S)-1-((S)-2-(3-(((R)-2-((S)-2-amino-3-phenylpropanamido)-3-hydroxy-3-methylbutanamido)methyl)benzamido)-4,4-dimethylpentanoyl)-4-hydroxypyrrolidine-2-carboxamido)-3-hydroxy-3-methylbutanoyl)-L-isoleucine] (H-F[dVal(3-OH)][3Amb][tBuAla][cisHyp][dVal(3-OH)]I-OH), the “Aggregation at 1mM” value in data set [1] was “weak signal”. Further, the logD in data set [2] was found to be 0.03. In data set [3], this molecule yielded an inhibition at 0.25 µM of 36%.

In the case of `C=C(C)C[C@H](NC(=O)[C@@H](NC(=O)[C@@H]1CCCN1C(=O)[C@H](CC(C)(C)C)NC(=O)[C@H](CCC(=O)O)NC(=O)[C@H](NC(=O)[C@H](N)Cc1ccccc1)C(C)(C)O)[C@@H](C)O)C(N)=O` [compound 044, (S)-4-((R)-2-((R)-2-amino-3-phenylpropanamido)-3-hydroxy-3-methylbutanamido)-5-(((S)-1-((S)-2-(((2S,3R)-1-(((S)-1-amino-4-methyl-1-oxopent-4-en-2-yl)amino)-3-hydroxy-1-oxobutan-2-yl)carbamoyl)pyrrolidin-1-yl)-4,4-dimethyl-1-oxopentan-2-yl)amino)-5-oxopentanoic acid] (H-[dF][dVal(3-OH)]E[tBuAla]PT[Leu(4,5-dehydro)]-NH2), in data set [1], the “Aggregation at 1mM” value is given as “weak signal”. The logD in data set [2] is -0.59. In addition, testing at 0.25 µM in data set [3] gave an inhibition of 51%.

`C=C(C)C[C@H]1NC(=O)[C@](C)(NC(=O)[C@@H](CCC(=O)O)NC(=O)[C@H](N)[C@H](C)O)CCC/C=C\CCC[C@](C)(C(=O)N[C@H](C(=O)O)[C@@H](C)CC)NC(=O)[C@H]([C@@H](C)O)NC(=O)C2CCCN2C1=O` (stereo partly drawn) [compound 052, (4R)-4-((2R,3S)-2-amino-3-hydroxybutanamido)-5-(((3S,6R,15R,18R,Z)-6-(((1S,2S)-1-carboxy-2-methylbutyl)carbamoyl)-3-((R)-1-hydroxyethyl)-6,15-dimethyl-18-(2-methylallyl)-1,4,16,19-tetraoxo-2,3,4,5,6,7,8,9,12,13,14,15,16,17,18,19,21,22,23,23a-icosahydro-1H-pyrrolo[1,2-d][1,4,7,10]tetraazacyclohenicosin-15-yl)amino)-5-oxopentanoic acid] (H-[dT][dE][R5][X4][ξP]T[R5]I-OH; staple (Z) 3-7): the “Aggregation at 1mM” value in data set [1] is listed as 0.17. Further, the logD in data set [2] was -0.07. In data set [3], this molecule came in with an inhibition at 0.25 µM of 73%.

For `C=C(C)C[C@H](NC(=O)c1ccc(CNC(=O)CC(O)CNC(=O)[C@H](N)Cc2ccccc2)cc1)C(=O)N1[C@H](C(=O)NCC(O)CC(=O)N[C@@H](CC(C)(C)C)C(=O)O)C[C@@H]2CCCC[C@@H]21` (stereo partly drawn) [compound 102, (2S)-2-(4-((2S,3aS,7aS)-1-((2S)-2-(4-((4-((R)-2-amino-3-phenylpropanamido)-3-hydroxybutanamido)methyl)benzamido)-4-methylpent-4-enoyl)octahydro-1H-indole-2-carboxamido)-3-hydroxybutanamido)-4,4-dimethylpentanoic acid.], the “Aggregation at 1mM” value in data set [1] was “weak signal”. Moreover, the logD in data set [2] came out at 0.2. In data set [3], the “Competitive Binding at 250nM (% Inhibition)” value is on record as “no inhibition”.

`CC(C)(C)C[C@H](NC(=O)CC(O)CNC(=O)[C@@H]1C[C@@H]2CCCC[C@@H]2N1C(=O)[C@H](CC(C)(C)C)NC(=O)c1ccc(CNC(=O)[C@H](N)C(C)(C)O)cc1)C(=O)O` (stereo partly drawn) [compound 103, (2S)-2-(4-((2S,3aS,7aS)-1-((S)-2-(4-(((R)-2-amino-3-hydroxy-3-methylbutanamido)methyl)benzamido)-4,4-dimethylpentanoyl)octahydro-1H-indole-2-carboxamido)-3-hydroxybutanamido)-4,4-dimethylpentanoic acid] (H-[dVal(3-OH)][4Amb][tBuAla][Oic][X1][tBuAla]-OH): the “Aggregation at 1mM” value in data set [1] is reported as “weak signal”. The molecule also yielded a pH-dependent lipophilicity (logD) in data set [2] of 0.44. The molecule also had an inhibition at 0.25 µM in data set [3] of 12%.

`C=C(C)C[C@H](NC(=O)c1ccc(CNC(=O)CC(O)CN)cc1)C(=O)N1[C@H](C(=O)NCC(O)CC(=O)N[C@@H](CC(C)(C)C)C(=O)O)C[C@@H]2CCCC[C@@H]21` (stereo partly drawn) [compound 104, (2S)-2-(4-((2S,3aS,7aS)-1-((2S)-2-(4-((4-amino-3-hydroxybutanamido)methyl)benzamido)-4-methylpent-4-enoyl)octahydro-1H-indole-2-carboxamido)-3-hydroxybutanamido)-4,4-dimethylpentanoic acid.]: in data set [1], the “Aggregation at 1mM” value is given as “weak signal”. Also, the logD in data set [2] was -0.3. In addition, the inhibition at 0.25 µM in data set [3] stood at 40%. The “half-time uptake t1/2” value in data set [4] amounted to 8.56 ± 0.48 min.

With `C=C(C)C[C@H](NC(=O)CC(O)CNC(=O)[C@@H]1C[C@@H]2CCCC[C@@H]2N1C(=O)[C@H](CC(=C)C)NC(=O)c1ccc(CNC(=O)[C@H](NC(=O)[C@H](N)Cc2ccccc2)C(C)(C)O)cc1)C(=O)O` (stereo partly drawn) [compound 105, (2S)-2-(4-((2S,3aS,7aS)-1-((S)-2-(4-(((R)-2-((R)-2-amino-3-phenylpropanamido)-3-hydroxy-3-methylbutanamido)methyl)benzamido)-4-methylpent-4-enoyl)octahydro-1H-indole-2-carboxamido)-3-hydroxybutanamido)-4-methylpent-4-enoic acid.] (H-[dF][dVal(3-OH)][4Amb][Leu(4,5-dehydro)][Oic][X1][Leu(4,5-dehydro)]-OH), in data set [1], the “Aggregation at 1mM” value is listed as “weak signal”. In data set [2], the logD is -0.37. Also, the inhibition at 0.25 µM in data set [3] came to 70%.

Regarding “FTEIPTI [compound 000, (S)-4-((2S,3R)-2-((S)-2-amino-3-phenylpropanamido)-3-hydroxybutanamido)-5-(((2S,3S)-1-((S)-2-(((2S,3R)-1-(((1S,2S)-1-carboxy-2-methylbutyl)amino)-3-hydroxy-1-oxobutan-2-yl)carbamoyl)pyrrolidin-1-yl)-3-methyl-1-oxopentan-2-yl)amino)-5-oxopentanoic acid, reference compound]”, the “Log P (Octanol/Water)” value in data set [2] is on record as 0.75. Further, the “Competitive Binding at 250nM (% Inhibition)” value in data set [3] (0.25 µM) is reported as “no inhibition”; in data set [3] (listed as EBIN, 0.25 µM) it was “did not”. Also, the “half-time uptake t1/2” value in data set [4] is reported as 2.50 ± 0.06 min.
